Blank lines part the entries; values can stand above or below the compound they belong to.
Legend:
AsPC-1 = test: Cancer spheroid formation under KRASi, SMAD4-deficient cells; format: cell-based, human; details: for Response of spheroid formation to TGFβ1 or TGFβRi: SMAD4-deficient, under G12Di MRTX1133, TGFβ 0.5 ng/ml, SB505124 1 μM
KPC PDAC cells [1] = test: Orthotopically transplanted KPC PDAC model with pancreatitis induction; format: in vivo, mouse
Procedure: (§1) For allograft or xenograft tumor models, human or mouse PDAC cells were transplanted orthotopically or subcutaneously into recipient C57BL/6 or nude mice at a concentration of 500,000 cells per injection, as specified in the figures. The cells were resuspended in Opti-MEM and combined with growth factor-reduced Matrigel (Corning) at a 1:1 ratio.
(§2) For bioluminescence imaging, each mouse received a 100 L injection of D-Luciferin (15 mg/mL, i.p., Perkin Elmer). After a 10-minute interval, mice were imaged using the IVIS Spectrum Imaging System, and images were acquired and analyzed using Living Image 4.3 software.

NFAT5 = test: Western blot of NFAT5 expression under KRN2; format: cell-based; details: PDAC cells, dose-dependent western blot
Procedure: (§3) Antibody information can be found in Table 2. Western blot analysis, IP, co-IP, and IHC staining were conducted following standard protocols. Human TMA slides were purchased from Biomax. Cell fractionation and Masson's Trichrome Staining were carried out using commercial kits, adhering to manufacturers' protocols. MS analysis of proteins pulled down by endogenous SMAD2, SMAD3, SMAD4, NFAT5, and IgG was performed by the Proteomics Core Facility at Rutgers New Jersey Medical School. Specifically, IP samples were subjected to SDS-PAGE separation. Each sample's gel lane was excised for in-gel trypsin digestion, and the resulting peptides were analyzed using LC-MS/MS on an Orbitrap Fusion Lumos Tribrid mass spectrometer coupled with the Ultimate 3000 nano-LC system (Thermo Scientific). MS/MS spectra were searched against the UniProt mouse database (55,336 sequences, downloaded 8/30/2021) using the Sequest search engine through the Proteome Discoverer platform (version 2.4) with a false discovery rate less than 1% for both proteins and peptides. Protein abundance ratios were determined using the Label-Free Quantitation (LFQ) method.

iKPC spheroids [2] = test: RNA-seq / GSEA in TGFβ-treated, KRAS*-depleted iKPC spheroids; format: cell-based, mouse; details: inhibition of NFAT5 by KRN2
Procedure: (§4) RNA extraction from 2-D or 3-D cultured cell samples was conducted using the RNA Extraction Kit from Qiagen. Matrigel-based 3-D cells were isolated using Cell Recovery Solution from Corning. RNA concentration was assessed using NanoDrop 2000. The RNA samples were either sent for RNA-seq analysis to the Genomic Center at Rutgers or Genewiz (Azenta), or reverse transcribed for qRT-PCR analysis. The preparation of cDNA utilized 5× All-In-One RT MasterMix from Applied Biological Materials, and the PCR reactions were prepared with SYBR Green PCR Master Mix from Applied Biosystems or Bio-Rad. qRT-PCR was executed on the CFX Opus 96 (Bio-Rad), with statistical analysis conducted using GraphPad Prism. For mRNA sequencing, the parameters were NGS-75 nt Paired End, utilizing the Illumina Next Generation Sequencing instrument.
GSEA was performed using GSEA software (4.3.2).

[3] = tested on: KRAS*-independent escaper tumor cells E725; test: Escaper tumor growth, E725 cells subcutaneous in nude mice; format: in vivo, mouse; details: KRN2 3 mg/kg QD vs vehicle; day 28
Text: as §1

KPC PDAC cells [4] = test: KPC transplanted (allograft) model, KRN2 and MRTX1133; format: in vivo
Procedure: as §1, §2

iKPC PDAC cells [5] = test: Cancer spheroid formation, TGFβ-driven KRAS* bypass; format: cell-based, mouse
Procedure: (§5) Human cell lines MIA PaCa-2 and Panc 04.03 were purchased from the American Type Culture Collection (ATCC) and cultured in DMEM supplemented with 10% FBS and RPMI supplemented with 15% FBS and 20 Units/ml human recombinant insulin, respectively. Mouse PDAC cells were isolated from spontaneous tumors developed in iKPC or KPC mice. KPC cell lines were sustained in RPMI (Gibco) with 10% FBS (Gibco), while iKPC cell lines were cultured in RPMI with 10% Tet-approved FBS (Gibco) and doxycycline (VWR, […]). Escaper tumor cell lines were maintained in RPMI with 10% Tet-approved FBS (Gibco). For cancer spheroid culture, cells were mixed with 50 L growth factor-reduced Matrigel (Corning) and plated in 24-well low-attachment cell culture plates (Nunc). Medium was added on top of the solidified Matrigel. We monitored both spheroid size and number for spheroid growth assays. For counting spheroid numbers, we used a cut-off of 100 m in diameter or specified, depending on the time and cell type. For measuring spheroid size, ImageJ was used. Monthly mycoplasma detection (Lonza) was performed to ensure the absence of contamination.

[6] = tested on: KPC [1860], Mia PaCa-2, and Panc 04.03 PDAC cells; test: Cancer spheroid formation under KRASi; format: cell-based, mouse and human
Procedure: as §5

MIA PaCa-2 = MIA PaCa-2 orthotopic xenograft model; format: in vivo
Text: as §1

[7] = tested on: KRAS*-independent escaper tumor cell lines from iKPC mice; test: KRAS*-independent escaper spheroid growth; format: cell-based, mouse; details: SB505124 3 μM; hybrid or QM-like phenotype
Procedure: as §5

S100a4 promoter = test: Luciferase reporter assay under the S100a4 promoter; format: cell-based, mouse; details: KRAS*-depleted iKPC PDAC cells
Procedure: Mouse S100a4 promoter was cloned into pGL4.12[iluc2CP] vector (Promega). Renilla luciferase vector (Promega) was used as the internal control. pGL4.12 vector and Renilla luciferase vector were co-transfected into iKPC PDAC cells using Lipofectamine 2000 (Invitrogen). After 24 hours, the medium was replaced, and cells were subjected to various treatments for an additional 24 hours. Subsequently, cells were collected for luciferase reporter assay using the Dual-Luciferase Reporter Assay Kit (Promega) according to the manufacturer's instructions. The firefly luciferase signal was normalized to Renilla luciferase prior to comparison among different treatment groups.

iKPC PDAC cells [8] = test: Gene expression changes in iKPC cells post TGFβ treatment; format: cell-based, mouse
Procedure: as §4

iKPC spheroids [9] = test: Western blot of S100A4, NFAT5 and EMT TFs in iKPC cells/spheroids; format: cell-based, mouse; details: TGFβ
Procedure: as §3

iKPC mice = test: Pancreatitis-induced spontaneous tumor relapse in iKPC mice; format: in vivo, mouse; details: CAE 100 μg/kg after dox withdrawal (KRAS* off); less than or around a year after treatment; control mice remained tumor-free
Procedure: The iKPC and KPC PDAC mouse models were established and described previously^7,19. They were bred in pure C57BL/6 background. Doxycycline (dox) water (2 mg/mL, ad libitum) was administrated at 4-6 weeks of mouse age to activate transgenic KRAS^G12D expression in iKPC mice. The C57BL/6 mice and nude mice of both sexes were purchased from the Jackson Laboratory and employed to ensure matching sexes of the cell lines.
For the induction of spontaneous tumor relapse in iKPC mice, the withdrawal of dox water was performed to cease KRAS* expression when the tumor diameter reached approximately 1 cm.

Compound: COc1ccc2c(Cc3ccccc3F)c3[n+](cc2c1OC)CCc1cc2c(cc1-3)OCO2.[Cl-] [KRN2]
KRASi persistent cancer spheroid formation, SMAD4-deficient cells (AsPC-1; KRN2 0.3 μM + MRTX1133 0.3 μM): excluding SMAD4-deficient cancer spheroid formation
Chronic pancreatitis-induced KRASi resistance (KPC PDAC cells [1]; MRTX1133 10 mg/kg BID + CAE 100 μg/kg + KRN2 3 mg/kg QD, KPC 1860, day 21): blockage of chronic pancreatitis-induced KRASi resistance
Concentration at which Nfat5 expression is suppressed (NFAT5): higher than 0.3 μM
Gene sets upregulated (GSEA) (iKPC spheroids [2]): upregulating genes associated with fatty acid metabolism and mTORC1 signaling
Gene signatures suppressed (GSEA) (iKPC spheroids [2]): suppressed EMT and NFxB gene signatures
Escaper tumor growth in vivo [3]: restriction of escaper tumor growth in vivo
Mouse allograft tumor growth (KPC PDAC cells [4]; KRN2 3 mg/kg QD in combination with MRTX1133 10 mg/kg QD): inhibition of mouse allograft tumor growth in combination with KRASi
Mouse survival (KPC PDAC cells [4]; KRN2 monotherapy 3 mg/kg QD, immune-competent mice): prolonged mouse survival
Tumor differentiation (H&E) (KPC PDAC cells [4]; KRN2 vs vehicle control): induced tumor differentiation
Systemic toxicity (mouse body weight) (KPC PDAC cells [4]; allograft model, during treatment): minimal systemic toxicities
TGFβ-driven KRAS* bypass (spheroid formation) (iKPC PDAC cells [5]; KRN2 1 μM, TGFβ 0.5 ng/ml, three iKPC cell lines): impairment of TGFβ-driven KRAS* bypass
KRASi persistent cancer spheroid formation ([6]; KRN2 1 μM + MRTX1133 0.03 μM (KPC), KRN2 0.3 μM + ARS-1620 5 μM (MIA PaCa-2)): attenuation of KRASi persistent cancer spheroid formation
Human xenograft tumor growth (MIA PaCa-2; KRN2 3 mg/kg QD with G12Ci MRTX849 100 mg/kg QD, day 28): reduction of human xenograft tumor growth cooperatively with KRASi
Systemic toxicity (mouse body weight) (MIA PaCa-2; xenograft model, during treatment): minimal systemic toxicities

Compound: C#Cc1c(F)ccc2cc(O)cc(-c3ncc4c(N5CC6CCC(C5)N6)nc(OC[C@@]56CCCN5C[C@H](F)C6)nc4c3F)c12 [MRTX1133]
Tumor growth under G12Di with pancreatitis induction (KPC PDAC cells [1]; MRTX1133 10 mg/kg BID + CAE 100 μg/kg): leads to resistance
Tumor growth, G12Di vs vehicle (KPC PDAC cells [1]; MRTX1133 10 mg/kg, BID): significantly reduces tumor growth

Compound: Cc1cccc(-c2[nH]c(C(C)(C)C)nc2-c2ccc3c(c2)OCO3)n1 [SB505124]
Response of spheroid formation to TGFβ1 or TGFβRi (AsPC-1): did not exhibit a response
Sensitivity of escaper spheroids to TGFβRi [7]: hypersensitivity
Cancer spheroid formation, TGFβRi combined with KRASi ([6]; SB505124 3 μM with MRTX1133 (KPC, Panc 04.03) or ARS-1620 (MIA PaCa-2)): eradication of cancer spheroids

S100a4 promoter luciferase activity under TGFβ (S100a4 promoter): activated S100a expression
Compound: TGFβ1: recombinant human and mouse TGFβ1 (Peprotech)
Response of spheroid formation to TGFβ1 or TGFβRi (AsPC-1): did not exhibit a response
Ccl2 expression elevation (iKPC PDAC cells [8]; TGFβ treatment, KRAS*-depleted iKPC PDAC cells): more than 700 fold
S100a4 expression (iKPC PDAC cells [8]; TGFβ, KRAS*-depleted iKPC spheroids): upregulated
NFAT5 protein level (iKPC spheroids [9]): upregulates NFAT5
S100A4 protein level (iKPC spheroids [9]; cancer spheroids): upregulation of S100A4
KRAS* bypass in spheroid assays (iKPC PDAC cells [5]; TGFβ1 treatment, KRAS* off): efficiently promoted several iKPC PDAC cell lines to bypass KRAS*
KRAS* bypass in spheroid assays, iKPC cell lines 251, 276 (iKPC PDAC cells [5]; TGFβ1 treatment, cell lines with higher Cdkn2a and Cdkn2b expression): unable to bypass KRAS*
Formation of cancer spheroids resistant to KRASi ([6]; TGFβ 0.5 ng/ml with MRTX1133 or ARS-1620, cells with intact TGFβ pathway): actively promoted the formation of cancer spheroids resistant to KRASi

Compound: caerulein
Tumor growth, CAE vs vehicle control (KPC PDAC cells [1]; CAE 100 μg/kg, C57BL/6 mice, BLI, tumor weight, tumor volume): promotes KPC PDAC tumor growth
Tumor morphology (H&E) (KPC PDAC cells [1]; CAE;G12Di-treated tumors relative to vehicle;G12Di controls): lost the ductal-like phenotype and were more undifferentiated
Tumor progression, CAE;G12Di vs vehicle;G12Di (KPC PDAC cells [1]; independent study, MRTX1133 10 mg/kg BID, CAE 100 μg/kg): significantly faster tumor progression
SMAD3 phosphorylation and EMT transcription factors in collected tumors (western blot) (KPC PDAC cells [1]; tumors under MRTX1133): induced SMAD3 phosphorylation and the upregulation of EMT transcription factors (TFs) such as SNAI2, ZEB1, and ZEB2
CAE-treated mice that developed escaper tumors (iKPC mice): at least 36%

Compound: recombinant S100A4 protein: recombinant mouse S100A4 (R&D) added to the culture media
Rescue of TGFβ-induced, KRAS*-independent cancer spheroid growth (iKPC PDAC cells [5]; added to culture media after NFAT5 inhibition (KRN2 1 μM) or knockdown of Nfat5 or S100a4): rescued TGFβ-induced, KRAS*-independent cancer spheroid growth

Source: US20250339520A1, “COMPOSITIONS AND METHODS FOR USE IN KRAS-TARGETED THERAPIES FOR THE TREATMENT OF CANCER” (RUTGERS, THE STATE UNIVERSITY OF NEW JERSEY, priority 2024, published 2025)
